The values that follow come from US7365099B2, “Animal body fat control” (Wisconsin Alumni Research Foundation, priority 2001, dated 2008).

Assay [1] deals with 3T3-L1 adipocytes. Nature of the assay: Glycerol released from 3T3-L1 adipocytes. The class given is cell-based. The note with it: treated 20–24 hours. As for the experimental part: (§1) Fat reduction by CLA is partly due to inhibition of lipoprotein lipase (LPL) in adipocytes, as has been previously shown using a 3T3-L1 adipocyte cell culture model. Using the same model, the effects on LPL of aspirin and NDGA, as compared to CLA, were tested. 3T3-L1 preadipocytes were cultured as described. Frost, S. C. and M. D. Lane, J. Biol. Chem. 260: 2646–2652(1985). Briefly, 3T3-L1 preadipocytes were grown to confluence at 37° C. in Dulbecco's Modified Eagle's Medium (DMEM) with 10% fetal bovine serum (FBS). At two days post-confluence (designated “day 0”) cell differentiation was induced with a mixture of methylisobutylxanthine (0.5 mM), dexamethasone (0.25 μM), and insulin (1 μg/ml) in DMEM containing 10% FBS. On “day 2” this medium was replaced with DMEM medium containing 10% FBS and insulin only. On “day 4” and thereafter the medium was DMEM plus 10% FBS only; this medium was subsequently replaced with fresh medium at 2 day intervals.
Cells were treated with other known lipoxygenase inhibitors. Cells were treated with testing compounds for 20–24 hours at day 6 or 7 post differentiation. Based on the ED50 of these inhibitors, various doses were first tested. In FIG. 5A, the concentration of SHA, CLA, ETYA, indomethacin, NDGA and AA861 were 1×10^−3 M, 1×10^−4 M, 1×10^−4 M, 1×10^−4 M, 1×10^−5 M and 1×10^−6 M, respectively. In FIG. 5B, the cells were treated with the test compounds at 1×10^−4 M. CLA was complexed with albumin and others were dissolved in ethanol. All dishes including control contained the same concentration of albumin (1×10^−4 M) and ethanol (final concentration of 0.1%). Numbers are mean±S.E. (in FIG. 5A, n=7–8, collected from 2 independent experiments, in FIG. 5B, n=11–12, collected from 3 independent experiments). […] Indomethacin blocks both cyclooxygenase and lipoxygenase, the two primary enzymes in the arachidonic acid metabolic cascade. […] When 100 μM of these were tested, the potency was AA861>NDGA>ETYA>Indomethacin>CLA. […]

Assay [2] has as its system 3T3-L1 adipocytes. Nature of the assay: Cellular triacylglyceride (TG) in 3T3-L1 adipocytes. The conditions noted are these: treated 20–24 hours. In kind it is cell-based. The protocol: as §1
Cells were treated with other known lipoxygenase inhibitors. Cells were treated with testing compounds for 20–24 hours at day 6 or 7 post differentiation. Based on the ED50 of these inhibitors, various doses were first tested. In FIG. 5A, the concentration of SHA, CLA, ETYA, indomethacin, NDGA and AA861 were 1×10^−3 M, 1×10^−4 M, 1×10^−4 M, 1×10^−4 M, 1×10^−5 M and 1×10^−6 M, respectively. […]

Assay [3] is described as follows: Body weights of mice on aspirin/CLA diets (Experiment 1, FIG. 1). The conditions noted are these: female ICR mice, 0.5% CLA and/or 0.03% aspirin. The class given is in vivo. From the text: After a 5 day adaptation period, four-week-old weanling female ICR mice (Harlan Sprague-Dawley) were randomly separated into groups that were fed one of the treatment diets for 4 weeks. Mice were fed either a control diet, or a diet supplemented with aspirin alone (0.03%), 0.5% CLA alone, or CLA with additional aspirin (0.006% [“Asp1”] or 0.03% [“Asp2”]). The control diet was semi-purified TD94060 diet, 99% basal mix from Harlan Teklad, Madison, Wis. that contained (ingredient, g/kg): sucrose, 476; casein, “vitamin-free” test, 210; corn starch, 150; DL-methionine, 3; corn oil 55; cellulose, 50; mineral mix, AIN-76, 35; vitamin mix, AIV-76A, 10; calcium carbonate, 4; choline bitartrate, 2; and ethoxyquin, 0.1. The aspirin doses reflect an average human dose (0.03%) or a recommended dose for preventing cardiovascular disease (0.006%). Supplemental CLA was added to diets at the expense of corn oil. Diet was stored at −20° C. until use. Mice were housed individually in a windowless room with a 12-h light-dark cycle in strict accordance to guidelines established by the Research Animal Resources Center of University of Wisconsin-Madison. Diet and water, available ad libitum, were freshly provided three times per week.

The subject of another assay is ICR mice. Description: Body composition analysis of mice on NDGA/CLA diets (Experiment 2). The note with it: male ICR mice. The class given is in vivo. As for the experimental part:
For body composition analyses, animals were sacrificed, gut contents were removed (to obtain empty carcass weight, “ECW”), and the carcasses frozen at −20° C. Frozen carcasses were chopped, and freeze dried to determine water content. Each dried carcass was ground to give a homogeneous sample before further analysis. Total nitrogen was analyzed by the Kjeldahl method. Helrich, K., Official Methods of Analysis, 15th ed.: 935–937(1990). Carcass fat content was measured by extraction with diethyl ether overnight using a Soxhlet apparatus. Total ash content was determined by incineration (500–600° C., overnight).
(§2) After a 5 day adaptation period, four-week-old weanling male ICR mice (Harlan Sprague-Dawley) were randomly separated into groups that were fed one of the treatment diets for 4 weeks. Mice were fed either a control diet (as in Experiment 1), or a diet supplemented with CLA (0.1%), NDGA (0.1% or 0.005%), or CLA (0.1%) with NDGA (0.1% or 0.005%). The lower level of NDGA was chosen based on the level used as an antioxidant in the food industry. Supplemental NDGA was added to diets at the expense of sugar. Diet was stored at −20° C. until use. Mice were housed individually in a windowless room with a 12-h light-dark cycle in strict accordance to guidelines established by the Research Animal Resources Center of University of Wisconsin-Madison. Diet and water, available ad libitum, were freshly provided three times per week.

Assay [4] in a line: Food intake of mice on NDGA/CLA diets (Experiment 2). In kind it is in vivo. The note with it: male ICR mice. As for the experimental part: as §2
The nature of assay [5]: Body weights of mice on NDGA/CLA diets (Experiment 2, FIG. 2). The conditions noted are these: male ICR mice, 0.1% CLA and/or 0.1% NDGA. In kind it is in vivo. The protocol: as §2
Setting [6] is: 4 weeks diet with 0.1% CLA and/or 0.1% NDGA, mean±S.E., N=5–6.
Where [7] appears, read: diet with 0.1% CLA and/or 0.1% NDGA, mean±S.E., N=5–6.

In the case of Conjugated linoleic acid [CLA], the “glycerol released from the cell (in words)” value with 3T3-L1 adipocytes [1] is “increased the glycerol released”. Further, the “amount of cellular triacylglyceride (TG) (in words)” value in the assay on 3T3-L1 adipocytes [2] is “reduced”. Also, the “body weights, weeks 0 through 3 (in words)” value in assay [3] is listed as “no difference in body weights”. Further, in the assay on ICR mice (setting [6]), the “% Ash” value stood at 3.49 ± 0.07% and the “ECW (empty carcass weight)” value is given as 32.0 ± 0.9 g. Further, the “body composition versus control (in words)” value with ICR mice (4 weeks, 0.1% CLA and/or 0.1% NDGA) was “reduced fat (p<0.197) and increased water and protein”. Besides, the “food intake compared to control (in words)” value in assay [4] (0.1% CLA, with or without 0.1% NDGA) is “reduced food intake only at week 3”. In addition, in assay [4] (setting [6]), the “food intake, Total” value is reported as 136.6 ± 1.2 g/mouse. Moreover, in assay [4] (setting [7]), the “food intake, Week 1” value turned out to be 34.5 ± 0.3 g/mouse and the “food intake, Week 4” value amounted to 32.4 ± 0.7 g/mouse. For the same substance, in assay [5], the “body weights (in words)” value is reported as “no difference in body weights”.
